In the assay the test system is lung cancer cell line NCI-H460. The experiment in a line: inhibition of cell proliferation. The settings on record: Homo sapiens. In kind it is cell-based. The procedure:
In order to evaluate the potential of HA nanocapsules encapsulating cytostatic docetaxel molecule to inhibit cell proliferation of lung cancer cell line NCI-H460, HA nanocapsules were prepared using hexadecyltrimethylammonium bromide (1.8 mg) according to the procedure described in Example 6. The results in FIG. 7 show the greatest ability to inhibit the proliferation of nanocapsules encapsulating docetaxel compared to the free molecule when systems are brought into contact for 2 to 48 h with the cancer cells. Moreover, one can see the safety of the systems without docetaxel. IC50 values, the concentration which produces 50% mortality of the population, was calculated using Graph Pad Prism 2.1 (Graph Pad Software).
In order to evaluate the potential of Pasn nanocapsules encapsulating docetaxel to inhibit cell proliferation of lung cancer cell line NCI-H460, PAsn nanocapsules were prepared using hexadecyltrimethylammonium bromide (1.8 mg) according to the procedure described in Example 12. The results in FIG. 11 show the greatest ability to inhibit the proliferation of nanocapsules encapsulating docetaxel compared to the free molecule when systems are brought into contact for 2 to 48 h with the cancer cells. Moreover, one can see the safety of the systems without docetaxel. IC50 values were calculated using Graph Pad Prism 2.1 (Graph Pad Software).

As to `CC(=O)O[C@@]12CO[C@@H]1C[C@H](O)[C@@]1(C)C(=O)[C@H](O)C3=C(C)[C@@H](OC(=O)[C@H](O)[C@@H](NC(=O)OC(C)(C)C)c4ccccc4)C[C@@](O)([C@@H](OC(=O)c4ccccc4)[C@H]21)C3(C)C` [docetaxel], the IC50 is, setting by setting: (NCI-H460, in contact with the cells for 2 h) 105 nM; (NCI-H460, in contact with the cells for 48 h) 36 nM.

The values above are taken from patent US9415019B2, “Nanocapsules with a polymer shell” (Universidade de Santiago de Compostela, priority 2011, dated 2016).
